Measurements from PMC12006171, “Marsupial cathelicidins: characterization, antimicrobial activity and evolution in this unique mammalian lineage” (Frontiers in Immunology, 2025).
Read-outs that look alike come from different tables or passages of the source.

Experiments:
[1] = tested on: six bacteria (S. aureus, E. coli, P. aeruginosa; ATCC and clinical isolate); assay type: cell-based; details: synthesized mature peptide
Protocol: Antimicrobial testing of 78 cathelicidin MPs was performed in two phases as outlined in Figure 1 . In phase I, 40 peptides (27 extant and 13 ancestral) were selected for testing based on rank (outlined above) and similarity to published marsupial cathelicidins with known antimicrobial activity ([33], [41]–[43]). These peptides were tested against nine bacteria (Staphylococcus aureus ATCC 29213 and clinical isolate, Escherichia coli ATCC 25922 and clinical isolate, Pseudomonas aeruginosa ATCC 27853 and clinical isolate, Streptococcus agalactiae ATCC 12386 and clinical isolate, Streptococcus pneumoniae ATCC 49619) and three fungi (Candida krusei ATCC 6258, Candida parapsilosis ATCC 22019, and Candida albicans clinical isolate). Details regarding these strains are available in Supplementary Table 4 . The antimicrobial activity of cathelicidins was determined as the minimum inhibitory concentration (MIC), which was the lowest concentration of cathelicidin that prevented visible bacterial or fungal growth, relative to the negative control. […] Minimum bactericidal concentration (MBC) and/or minimum fungicidal concentration (MFC) was conducted to determine microbicidal versus static action. Activity against S. aureus ATCC, E. coli ATCC, and Pseudomonas aeruginosa ATCC 27853 was examined in the presence of divalent cations to determine the impact of inhibitors.
In phase II, the remaining 38 peptides (37 extant and one ancestral) were tested against six bacteria (S. aureus ATCC and clinical isolate, E. coli ATCC and clinical isolate, and P. aeruginosa ATCC and clinical isolate). […] No further testing on phase II peptides was performed. Detailed methods for all assays are provided in subsequent sections.
Antimicrobial activity was determined using a broth microdilution susceptibility assay in 96 well polypropylene plates according to Clinical Laboratory Standards Institute guidelines M07-A and M26A as described previously ([33], [42], [43]). The bacterial and fungal isolates from humans and animals used in this study are outlined in Supplementary Table 4 . Only yeasts were included in the panel of fungi as they have been used in the susceptibility testing of eutherian ([3], [81]–[83]) and other marsupial cathelicidins previously ([33], [42], [43]). Cathelicidin mature peptides were solubilized in DMSO and serially diluted in duplicate from 128-0.25μg/mL in a final volume of 100µL. For bacteria, cathelicidins were diluted in Mueller Hinton Broth (MHB) with or without 10% lysed horse blood, and with (MH II B) or without (MHB) calcium and magnesium cations. For fungi, cathelicidins were diluted in Roswell Park Memorial Institute medium (RPMI)-1640 MOPS. Ampicillin or tetracycline were included as a positive control for Gram-positive and -negative bacteria respectively, while amphotericin B was used for fungi. A media-only negative control and growth control (no cathelicidin) were also included on each plate. Bacteria were sub-cultured on Muller Hinton agar (MHA) or sheep blood agar (BA), and fungi on Sabouraud dextrose agar (SAB), 20–24 hours prior to the test. Colonies were suspended in saline, the concentration adjusted to a 0.5 McFarland standard, and then diluted in media to a concentration of 1.0 x 10^6 cells/mL. Then, 100μL was added to each well of the cathelicidin dilution plate, giving a final inoculum density of 5 x 10^5 CFU/mL and cathelicidin concentration of 64-0.125μg/mL. Colony counts were performed on MHA/BA/SAB to confirm inoculum density. All plates were incubated at 35°C for 20–24 hours, depending on the strain.
Colonies were counted and compared to the colony count of the starting inoculum.

[2] = tested on: three fungi (Candida krusei, Candida parapsilosis, Candida albicans); design: method as in 4 sources, ref Peel et al 2016 ||| ref Peel et al 2021 ||| ref Wang et al 2011 ||| ref Peel et al 2017; details: cited from earlier work
[3] = tested on: six bacteria (S. aureus, E. coli, P. aeruginosa; ATCC and clinical isolate); design: method as in 4 sources, ref Peel et al 2016 ||| ref Peel et al 2021 ||| ref Wang et al 2011 ||| ref Peel et al 2017; details: cited from earlier work
[4] = broth microdilution screening, phase I or II, Y/N summary over the bacteria tested
[5] = mature peptide, Y/N summary from earlier study, ref Wang et al 2011
[6] = mature peptide, Y/N summary from earlier study, ref Peel et al 2017
[7] = mature peptide, Y/N summary from earlier study, ref Peel et al 2016
[8] = mature peptide, Y/N summary from earlier study, ref Peel et al 2021
[9] = mature peptide (MP), Y/N summary, ref Peel et al 2017

| Sequence | Antibacterial (MIC <64ug/mL) [1, 4] | Antifungal (MIC <64ug/mL) [2, 9] | Antibacterial (MIC <64ug/mL) [3, 9] | other results |
| --- | --- | --- | --- | --- |
| FRKLRNIFSRGRDDKE [MagiCath4] | N (Antibacterial (MIC <64ug/mL)) |  |  |  |
| GEKVKTRFIAAIKKLIDTFLP [MaruCath8] | N (Antibacterial (MIC <64ug/mL)) |  |  |  |
| GSTSSPTVRF [LahiCath2] | N (Antibacterial (MIC <64ug/mL)) |  |  |  |
| KEKATKFRNSIRRRVNGLKIGAADRVPGHYLA [MagiCath5] | N (Antibacterial (MIC <64ug/mL)) |  |  |  |
| KKFLKSVIKEAISKGIPKGIQAVNKLIKEKKEGQKHKP [MAP2, marsupial ancestral peptide, predicted by ANCESCON and GASP, synthesized] |  |  |  | Antibacterial (MIC <64ug/mL) ([1]; antimicrobial screening Phase II, Y/N summary over bacteria tested, broth microdilution): N (Antibacterial (MIC <64ug/mL)) |
| KRGFGDSVKKTGTKLKNSIRRRVTGLTVGAAVLRPG [MaruCath1p] | N (Antibacterial (MIC <64ug/mL)) |  |  |  |
| KRGLWESLKRKATKLGDDIRNTLRNFKIKFPVPRQG [MaeuCath2*] |  |  |  | Antifungal (MIC <64ug/mL) [2, 5]: Y (Wang et al 2011) (Antifungal (MIC <64ug/mL)); Antibacterial (MIC <64ug/mL) [3, 5]: Y (Wang et al 2011) (Antibacterial (MIC <64ug/mL)) |
| KRGLWESLKRKVTKLGDDIRNTLRNFKIKFPVPRQG [MaeuCath7] |  |  |  | Antifungal (MIC <64ug/mL) [2, 6]: N (Peel et al 2017) (Antifungal (MIC <64ug/mL)); Antibacterial (MIC <64ug/mL) [3, 6]: Y (Peel et al 2017) (Antibacterial (MIC <64ug/mL)) |
| KRMGIFHLFWAGLRKLGNLIKNKIQQGIENFLG [SahaCath3] |  |  |  | Antifungal (MIC <64ug/mL) [2, 7]: Y (Peel et al 2016) (Antifungal (MIC <64ug/mL)); Antibacterial (MIC <64ug/mL) [3, 7]: N (Peel et al 2016) (Antibacterial (MIC <64ug/mL)) |
| KVKRGLWDTVKRKVTNLRNSIRNRATNFKLGG [MagiCath1] | N (Antibacterial (MIC <64ug/mL)) |  |  |  |
| LFPRRRKGSNKPGKYSVLFAAKPSVGKTPHILTI [PhciCath1] |  |  |  | Antifungal (MIC <64ug/mL) [2, 8]: N (Peel et al 2021) (Antifungal (MIC <64ug/mL)); Antibacterial (MIC <64ug/mL) [3, 8]: N (Peel et al 2021) (Antibacterial (MIC <64ug/mL)) |
| LKKFFSSMIKKAVSKGISKGISKGIQEVDKAIKQKK [ModoCath2] |  | N (Peel et al 2017) (Antifungal (MIC <64ug/mL)) | N (Peel et al 2017) (Antibacterial (MIC <64ug/mL)) |  |
| LKKIFGSIVKKAVSKGVAEGLKAVDEARKAEKKGKK [ModoCath1] |  | N (Peel et al 2017) (Antifungal (MIC <64ug/mL)) | N (Peel et al 2017) (Antibacterial (MIC <64ug/mL)) |  |
| LYRRRKYPTSYYLLLGGKGNNRGYKPHIIYV [ModoCath11] |  | N (Peel et al 2017) (Antifungal (MIC <64ug/mL)) | N (Peel et al 2017) (Antibacterial (MIC <64ug/mL)) |  |
| NFIHQKYRILLDKYRKLQDIFSGSGDKV [PhciCath2] |  |  |  | Antifungal (MIC <64ug/mL) [2, 8]: N (Peel et al 2021) (Antifungal (MIC <64ug/mL)); Antibacterial (MIC <64ug/mL) [3, 8]: N (Peel et al 2021) (Antibacterial (MIC <64ug/mL)) |
| PGRKKGSKRHKPGSYSVIALGKPGVKKAPYMEAL [MagiCath2] | N (Antibacterial (MIC <64ug/mL)) |  |  |  |
| PGRKKGSKRHKPGSYSVIALGKPGVKKSPYMEAL [MaeuCath8] |  |  |  | Antifungal (MIC <64ug/mL) [2, 6]: N (Peel et al 2017) (Antifungal (MIC <64ug/mL)); Antibacterial (MIC <64ug/mL) [3, 6]: N (Peel et al 2017) (Antibacterial (MIC <64ug/mL)) |
| PIRTKRRWKLIKKGGKIVKDLLTKNNIIILPGGNE [TaacCath1] |  | N (Peel et al 2017) (Antifungal (MIC <64ug/mL)) | Y (Peel et al 2017) (Antibacterial (MIC <64ug/mL)) |  |
| PKQKNGSKNRRFRIGGYTMISMKQPRVQKAPYMEAL [ModoCath9] |  | N (Peel et al 2017) (Antifungal (MIC <64ug/mL)) | N (Peel et al 2017) (Antibacterial (MIC <64ug/mL)) |  |
| PPEPLRFKRIRCLNGRKCNYHNLLLTIVPHWRIPKGK [PhciCath3] |  |  |  | Antifungal (MIC <64ug/mL) [2, 8]: N (Peel et al 2021) (Antifungal (MIC <64ug/mL)); Antibacterial (MIC <64ug/mL) [3, 8]: N (Peel et al 2021) (Antibacterial (MIC <64ug/mL)) |
| PRRKKGPKKDNYKPGGYSLIALGKPDIQKAPYMEAL [MaruCath7] | N (Antibacterial (MIC <64ug/mL)) |  |  |  |
| RTFGNLIHQKYRKLLEAYRKLRDIFSG [ModoCath5] |  | N (Peel et al 2017) (Antifungal (MIC <64ug/mL)) | N (Peel et al 2017) (Antibacterial (MIC <64ug/mL)) |  |
| SKTKRRSLLKRLGDGIRGFWNGFRGRK [ModoCath4] |  | Y (Peel et al 2017) (Antifungal (MIC <64ug/mL)) | Y (Peel et al 2017) (Antibacterial (MIC <64ug/mL)) |  |
| STILEDPGKIRERRDIGEEPIQKKQKMYRDQMQ [SahaCath7] |  |  |  | Antifungal (MIC <64ug/mL) [2, 8]: N (Peel et al 2021) (Antifungal (MIC <64ug/mL)); Antibacterial (MIC <64ug/mL) [3, 8]: N (Peel et al 2021) (Antibacterial (MIC <64ug/mL)) |
| SVPGTRAQSGTTSPGSGSRRVARSRG [OranCath6] |  | N (Peel et al 2017) (Antifungal (MIC <64ug/mL)) | N (Peel et al 2017) (Antibacterial (MIC <64ug/mL)) |  |
| TFKRKNGSRKNGHRPGGYSLIALGNKKVLKAPYMESI [SahaCath2] |  |  |  | Antifungal (MIC <64ug/mL) [2, 7]: N (Peel et al 2016) (Antifungal (MIC <64ug/mL)); Antibacterial (MIC <64ug/mL) [3, 7]: N (Peel et al 2016) (Antibacterial (MIC <64ug/mL)) |
| TLTQAHCPYFLRKKPEGEMATGGRPQETPKLLGAL [ModoCath10] |  | N (Peel et al 2017) (Antifungal (MIC <64ug/mL)) | N (Peel et al 2017) (Antibacterial (MIC <64ug/mL)) |  |
| TPELFRSRRSPLPGRKKGSKRPKPGSYSVIALGKPGLKKAPYMEAL [LahiCath1] | N (Antibacterial (MIC <64ug/mL)) |  |  |  |
| VSESISHGIPKAISAVNKLIKKKKKGATTPRVK [ModoCath6] |  | N (Peel et al 2017) (Antifungal (MIC <64ug/mL)) | N (Peel et al 2017) (Antibacterial (MIC <64ug/mL)) |  |
